Data taken from patent publication US20040082635A1, “Fused cyclic compounds and medicinal use thereof” (priority 2001, published 2004).
Structures can show the parent of a compound that is named as a salt. Values belong to the molecule of their own block, whether it stands above or below them.

Target: T1, HCV polymerase (Hepatitis C virus genotype 1b, UniProt P26663)
T1 construct: a region encoding NS5B (591 amino acids; J Virol 1991 Mar, 65(3), 1105-13) was amplified by PCR; 6 His (N); made in house; host or cells: Escherichia coli
T1 sequence (P26663 2420-3010): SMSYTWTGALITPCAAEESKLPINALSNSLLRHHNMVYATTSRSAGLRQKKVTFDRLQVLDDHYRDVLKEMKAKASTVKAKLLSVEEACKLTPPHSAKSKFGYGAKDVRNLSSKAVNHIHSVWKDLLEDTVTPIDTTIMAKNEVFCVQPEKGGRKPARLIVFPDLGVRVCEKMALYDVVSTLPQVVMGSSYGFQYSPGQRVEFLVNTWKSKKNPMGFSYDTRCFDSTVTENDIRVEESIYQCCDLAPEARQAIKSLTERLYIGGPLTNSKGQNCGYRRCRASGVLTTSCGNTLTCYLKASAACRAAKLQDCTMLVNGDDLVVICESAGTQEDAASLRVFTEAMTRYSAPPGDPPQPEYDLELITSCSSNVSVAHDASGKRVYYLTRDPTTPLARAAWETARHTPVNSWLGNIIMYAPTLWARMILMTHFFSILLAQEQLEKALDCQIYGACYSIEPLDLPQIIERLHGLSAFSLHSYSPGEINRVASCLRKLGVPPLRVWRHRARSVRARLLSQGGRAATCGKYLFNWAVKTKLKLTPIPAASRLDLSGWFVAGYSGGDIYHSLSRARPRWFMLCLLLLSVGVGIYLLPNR
Test: biochemical
Details: read-out: HCV polymerase inhibitory activity IC50

SMILES: Cc1nc(-c2ccc(S(C)(=O)=O)cc2)c(COc2ccc(-c3nc4cc(C(=O)O)ccc4n3C3CCCCC3)cc2)s1 [Example 217, 1-cyclohexyl-2-{4-[{4-(4-methanesulfonylphenyl)-2-methyl-5-thiazolyl}methoxy]phenyl}benzimidazole-5-carboxylic acid]
IC50: 58 nM

SMILES: CCCNC(=O)c1ccc(-c2ccc(Cl)cc2)c(COc2ccc(-c3nc4cc(C(=O)O)ccc4n3C3CCCCC3)c(F)c2)c1 [Example 389, 2-{4-[2-(4-chlorophenyl)-5-(propylcarbamoyl)benzyloxy]-2-fluorophenyl}-1-cyclohexylbenzimidazole-5-carboxylic acid hydrochloride]
IC50: 12 nM

IC50: 12 nM
SMILES: O=C(O)c1ccc2c(c1)nc(-c1ccc(OCc3cc(C(=O)NCc4ccncc4)ccc3-c3ccc(Cl)cc3)cc1)n2C1CCCCC1 [Example 318, 2-{4-[2-(4-chlorophenyl)-5-(4-pyridylmethylcarbamoyl)-benzyloxy]phenyl}-1-cyclohexylbenzimidazole-5-carboxylic acid dihydrochloride]

IC50: 180 nM
SMILES: CN(C)C(=O)c1ccc(N2CCC[C@H]2COc2ccc(-c3nc4cc(C(=O)O)ccc4n3C3CCCCC3)cc2)cc1 [Example 228, 2-{4-[{(2S)-1-(4-dimethylcarbamoylphenyl)-2-pyrrolidinyl}-methoxy]phenyl}-1-cyclohexylbenzimidazole-5-carboxylic acid]

SMILES: O=C(O)c1ccc2c(c1)nc(-c1ccc(OCc3cc(OCC(=O)N4CCC(O)CC4)ccc3-c3ccc(Cl)cc3)cc1)n2C1CCCCC1 [Example 343]
IC50: 17 nM

SMILES: O=C(O)c1ccc2c(c1)nc(-c1ccc(OCc3cc(N4CCCC4=O)ccc3-c3ccc(Cl)cc3)cc1F)n2C1CCSCC1 [Example 419, 2-{4-[2-(4-chlorophenyl)-5-(2-oxopyrrolidin-1-yl)benzyloxy]-2-fluorophenyl}-1-(tetrahydrothiopyran-4-yl)benzimidazole-5-carboxylic acid hydrochloride]
IC50: 21 nM

SMILES: O=C(O)c1ccc2c(c1)cc(-c1ccc(OCc3ccccc3)cc1)n2C1CCCC1 [Example 503, 2-(4-benzyloxyphenyl)-1-cyclopentyl-1H-indole-5-carboxylic acid]
IC50: 196 nM

SMILES: O=C(O)c1ccc2c(c1)nc(-c1ccc(Oc3cccc(OCc4ccc(Cl)cc4)c3)cc1)n2C1CCCCC1 [Example 201, 2-{4-[3-(4-chlorobenzyloxy)phenoxy]phenyl}-1-cyclohexylbenzimidazole-5-carboxylic acid]
IC50: 140 nM

SMILES: O=C(O)c1ccc2c(c1)nc(-c1ccc(OCc3ccc(Cl)cc3)cc1)n2C1CCCC1 [Example 45, 2-[4-(4-chlorobenzyloxy)phenyl]-1-cyclopentylbenzimidazole-5-carboxylic acid]
IC50: 400 nM

SMILES: CC(C)(CO)NC(=O)c1ccc(-c2ccc(Cl)cc2)c(COc2ccc(-c3nc4cc(C(=O)O)ccc4n3C3CCCCC3)cc2)c1 [Example 352, 2-{4-[2-(4-chlorophenyl)-5-{(1-hydroxy-2-methylpropan-2-yl)carbamoyl}benzyloxy]phenyl}-1-cyclohexylbenzimidazole-5-carboxylic acid hydrochloride]
IC50: 13 nM

SMILES: CNc1nc(Oc2ccc(-c3nc4cc(C(=O)O)ccc4n3C3CCCCC3)cc2)nc(-c2cccc(Cl)c2)n1 [Example 236, 2-{4-[2-(3-chlorophenyl)-4-methylamino-1,3,5-triazin-6-yloxy]phenyl}-1-cyclohexylbenzimidazole-5-carboxylic acid trifluoroacetate]
IC50: 75 nM

SMILES: CN(C)C(=O)c1ccc(-c2ccc(C(=O)N(C)C)cc2COc2ccc(-c3nc4cc(C(=O)O)ccc4n3C3CCCCC3)cc2)cc1 [Example 273, 2-{4-[3-dimethylcarbamoyl-6-(4-dimethylcarbamoylphenyl)-benzyloxy]phenyl}-1-cyclohexylbenzimidazole-5-carboxylic acid]
IC50: 41 nM

IC50: 32 nM
SMILES: O=C(O)c1ccc2c(c1)nc(-c1ccc(OCc3cc(C(=O)NCC4CCCCC4)ccc3-c3ccc(Cl)cc3)cc1)n2C1CCCCC1 [Example 317, 2-{4-[2-(4-chlorophenyl)-5-(cyclohexylmethylcarbamoyl)-benzyloxy]phenyl}-1-cyclohexylbenzimidazole-5-carboxylic acid hydrochloride]

SMILES: CN(C)C(=O)COc1cccc(Oc2ccc(-c3nc4cc(C(=O)O)ccc4n3C3CCCCC3)cc2)c1 [Example 196, 1-cyclohexyl-2-{4-[3-(dimethylcarbamoylmethoxy)phenoxy]phenyl}benzimidazole-5-carboxylic acid]
IC50: 200 nM

SMILES: O=C(O)c1ccc2c(c1)nc(-c1ccc(Oc3ccccc3OCC(=O)N3CCCCC3)cc1)n2C1CCCCC1 [Example 192, 1-cyclohexyl-2-{4-[2-(piperidinocarbonylmethoxy)phenoxy]-phenyl}benzimidazole-5-carboxylic acid]
IC50: 220 nM

SMILES: Cc1cnc(-c2ccc(-c3ccc(Cl)cc3)c(COc3ccc(-c4nc5cc(C(=O)O)ccc5n4C4CCCCC4)cc3)c2)s1 [Example 366, 2-{4-[2-(4-chlorophenyl)-5-(5-methylthiazol-2-yl)benzyloxy]-phenyl}-1-cyclohexylbenzimidazole-5-carboxylic acid hydrochloride]
IC50: 24 nM

SMILES: CN(c1ccc(-c2ccc(Cl)cc2)c(COc2ccc(-c3nc4cc(C(=O)O)ccc4n3C3CCCCC3)c(F)c2)c1)S(C)(=O)=O [Example 456, 2-[4-{2-(4-chlorophenyl)-5-[N-methyl-N-(methylsulfonyl)amino]benzyloxy}-2-fluorophenyl]-1-cyclohexylbenzimidazole-5-carboxylic acid hydrochloride]
IC50: 17 nM

SMILES: Cc1nc(-c2ccc(Cl)cc2)c(COc2ccc(-c3nc4cc(C(=O)O)ccc4n3C3CCCCC3)cc2)s1 [Example 218, 2-{4-[{4-(4-chlorophenyl)-2-methyl-5-thiazolyl}methoxy]phenyl}-1-cyclohexylbenzimidazole-5-carboxylic acid]
IC50: 33 nM

IC50: 30 nM
SMILES: CN(Cc1ccccc1)C(=O)c1ccc(-c2ccc(Cl)cc2)c(COc2ccc(-c3nc4cc(C(=O)O)ccc4n3C3CCCCC3)cc2)c1 [Example 319, 2-{4-[2-(4-chlorophenyl)-5-(N-benzyl-N-methylcarbamoyl)-benzyloxy]phenyl}-1-cyclohexylbenzimidazole-5-carboxylic acid hydrochloride]

SMILES: CC(C)NC(=O)c1ccc(-c2ccc(F)cc2F)c(COc2ccc(-c3nc4cc(C(=O)O)ccc4n3C3CCCCC3)c(F)c2)c1 [Example 397, 2-{4-[2-(2,4-difluorophenyl)-5-(isopropylcarbamoyl)benzyloxy]-2-fluorophenyl}-1-cyclohexylbenzimidazole-5-carboxylic acid hydrochloride]
IC50: 37 nM

SMILES: CS(=O)(=O)N1CCC(COc2cccc(Oc3ccc(-c4nc5cc(C(=O)O)ccc5n4C4CCCCC4)cc3)c2)CC1 [Example 198, 1-cyclohexyl-2-{4-[3-{(1-methanesulfonyl-4-piperidyl)methoxy}-phenoxy]phenyl}benzimidazole-5-carboxylic acid]
IC50: 44 nM

SMILES: COc1ccc(CCOc2ccc(-c3nc4cc(C(=O)O)ccc4n3C3CCCCC3)cc2)cc1 [Example 119, 1-cyclohexyl-2-{4-[2-(4-methoxyphenyl)ethoxy]phenyl}-benzimidazole-5-carboxylic acid]
IC50: 130 nM
